In patent US20260138981A1, “DIHYDROFOLATE REDUCTASE INHIBITORS FOR ANTI-BIOTIC RESISTANT INFECTIONS” (THE TRUSTEES OF PRINCETON UNIVERSITY, priority 2022, published 2026):

Experiments:
[1] = test system: P. aeruginosa PA14; assay: Drug accumulation assay (intrabacterial drug metabolism, LC/MS); assay type: cell-based; settings: PA14, 5 μM, compared with TMP
Protocol: FIG. 1G provides intrabacterial drug metabolism (IBDM) of PA14 treated with 5 μM fluorofolin or trimethoprim. Samples were taken at time t=0, 30, 60, and 90 minutes. Data represent mean±SD of triplicate technical replicates.
FIG. 1H provides cumulative accumulation of drugs over 90 mins by AUC of IBDM curves. Data represent mean±SD of triplicate technical replicates. (P value≤0.0001) t-test using Prism 9.
Overnight PA14 cultures were back-diluted to early-mid exponential phase (OD600=0.4-0.6). The assay was initiated with treatment of the culture with either 5.0 μM fluorofolin or 5.0 μM trimethoprim. A DMSO treated culture was utilized as a control. […] The resulting cell lysate samples were analyzed utilizing verapamil as an internal standard. […]
Compound accumulation was realized using the selective ion monitoring (SIM) mode to quantify peak integration for a compound and the internal standard using their respective m/z values. Compound peaks were confirmed using a scanning mode that detected the compound peak using an m/z range of 100-1000. Peak area integration values were determined and a ratio of the peak area for the compound to the peak area for the verapamil internal standard was calculated and compound concentration was then determined from the compound calibration curve. […]

[2] = test system: E. coli lptD4213; assay: Membrane potential and permeability, TO-PRO-3 and DiOC2(3) flow cytometry; assay type: cell-based; settings: E. coli lptD4213, 2×MIC
Protocol: FIG. 5B provides flow cytometry of E. coli lptD4213 treated with 5% DMSO, 5 μM CCCP, or 2×MIC fluorofolin 0.04 μg/mL polymixin B, and 0.4 μg/mL trimethoprim and stained with TO-PRO-3 and DiOC2(3).
(§1) The ability of fluorofolin to permeabilize P. aeruginosa PA14 was examined. Specifically, flow cytometry of P. aeruginosa stained with TO-PRO-3 was used, treated the bacteria with 2×MIC, and analyzed membrane integrity. […] It was hypothesized that this decrease in membrane targeting might also decrease toxicity due to the disruption of eukaryotic membranes.
(§2) Overnight P. aeruginosa PA14 or E. coli lptD4213 cultures were diluted 1:100 and grown to mid exponential phase at 37° C. Cultures were diluted 1:10 into PBS and treated with antibiotics for 15 minutes. P. aeruginosa PA14 was stained with TO-PRO-3 (640 nm excitation, 670/30 nm emission) to measure cell membrane integrity. […] DiOC2(3) was evaluated as a ratio of green (488 nm excitation, 525/50 nm emission) to red (488 nm excitation, 610/20 nm emission) (Novo et al., 1999). […] 100,000 events were recorded for each data file. Gates for permeabilization were determined using Polymixin B (Sigma-Aldrich P1004) and untreated controls. Gates for depolarization were determined using CCCP as a positive control. Data was analyzed using FlowJo v10 software (FlowJo LLC, Ashland, OR).

[3] = test system: PBMC; assay type: cell-based; settings: 72 h
Protocol: FIG. 5D provides IC50 of fluorofolin against in vitro mammalian cell lines relative to the IC50 of IRS-16. HLF: human lung fibroblast, HK-2: human kidney epithelial, PBMC: peripheral blood mononuclear cell, WI-38: Embryonic lung tissue.
After 24 hours, DMSO or compounds were added in 3-fold dilutions and incubated for 72 hours. For PBMC, CellTiter-Glo Reagent was added in equal volume and incubated for 30 min after which luminescence was read. For other cell types, CyQUANT Detection Reagent was added in equal volume and incubated for 1 hour after which fluorescence was read with standard green filter set (508/527 nm ex). Cell toxicity was evaluated by Pharmaron, Inc. (Beijing, […]).

[4] = test system: P. aeruginosa PA14; assay: Growth with TMI supplementation; assay type: cell-based; settings: P. aeruginosa PA14, fluorofolin 2×MIC, 0.3 mM TMI
Protocol: (§3) FIGS. 3A and 3B characterize the growth of E. coli MG1655 and P. aeruginosa PA14 respectively in 0.3 mM thymine, methionine, and inosine (TMI) supplemented media and treated with fluorofolin at 2×MIC or DMSO. Curves represent optical at 600 nm (OD600) of 2 biological replicates. Mean±SD are shown.
(§4) Where listed, growth media were prepared according manufacturer recommendations: LB Broth and LB Broth supplemented with 0.3 mM thymine (BD Biosciences 244610, Alfa Aesar A15879), 0.3 mM methionine (Sigma-Aldrich M9625), 0.3 mM inosine (EMD Millipore 4060), Mueller Hinton II Broth (Cation-Adjusted)/(CAMHB) (BD 212322) or 0.3 mM thymidine (Sigma-Aldrich T1895), Gutnick Minimal Media (1.0 g/L K2SO4, 13.5 g/L K2HPO4, 4.7 g/L KH2PO4, 0.1 g/L of MgSO4-7H2O, 10 mM NH4Cl as a nitrogen source, and 0.4% w/v glucose as a carbon source)^62.

[5] = test system: E. coli MG1655; assay: Growth with TMI supplementation; assay type: cell-based; settings: E. coli MG1655, fluorofolin 2×MIC, 0.3 mM thymine, methionine, inosine
Protocol: as §3, §4

[6] = test system: P. aeruginosa PA14; assay: Membrane permeability, TO-PRO-3 flow cytometry; assay type: cell-based; settings: PA14, 2×MIC, 15 min
Protocol: FIG. 5A provides flow cytometry results of PA14 stained with the membrane permeability dye TO-PRO-3. […]. The gates were determined for TO-PRO-3 staining using solvent only and polymixin B controls.
as §1, §2

[7] = test system: sheep red blood cells
Protocol: Percent hemolysis was measured using Abs405 compared to 100% lysis control by Triton X-100 (1% v/v). Mean±SD of technical triplicates are shown.
Samples were treated at 37° C. with shaking for 1 hour and then centrifuged. Supernatants were collected and absorbances were measured at 405 nm in a Tecan InfiniteM200 Pro (Männedorf, CH) microplate reader. Percentage hemolysis was calculated compared to 100% lysis by Triton X-100 (1% v/v) (Sigma-Aldrich X100RS).

Q: `Nc1nc(N)c2c(ccc3c2ccn3Cc2ccnc(F)c2)n1` [fluorofolin] was tested. Which “rate of accumulation in P. aeruginosa” value ([1]; 0-90 min) did it give?
A: more rapidly

Q: What about the “cumulative accumulation (AUC of IBDM curves)” value ([1]; over 90 mins) of the same compound?
A: higher levels

Q: And the “membrane depolarization or permeabilization” value [2]?
A: does not cause membrane depolarization or permeabilization

Q: And the “increase in IC50 compared to IRS-16” value [3]?
A: 9.6 fold

Q: And the “rescue of growth inhibition by TMI supplementation” value [4]?
A: unable to rescue

Q: And the “rescue of growth inhibition by TMI supplementation” value [5]?
A: could also be rescued

Q: And the “disruption of membranes (TO-PRO-3)” value [6]?
A: does not cause significant disruption

Q: What about the “permeabilization of red blood cell membranes (hemolysis)” value [7] of the same compound?
A: did not cause significant permeabilization
